Laboratory results reported in patent publication US8530511B2, “Administration of dithiolane compounds for photoprotecting the skin” (L'Oreal, priority 2008, dated 2013).
Where “and” joins values, the source holds several entries; their conditions need not be identical. Equal entries are not always repeated.

What was measured:
[1] = system: HaCaT cells; assay: MCB test on HaCaT: intracellular GSH level after UV daylight (UV-DL) exposure; assay type: cell-based, human; details: for activity at 30 µM / inhibition at 30 µM / activity at 100 µM / inhibition at 100 µM: Homo sapiens, t=6 hours after exposure; for activity at 30 µM / activity at 100 µM: GSH-monochlorobimane fluorescence, HaCaT pretreated and exposed to UV-DL, read-out: % fluo; for inhibition at 30 µM / inhibition at 100 µM: against UV-DL-induced depletion of GSH, read-out: % protection; for inhibition at 30 µM / inhibition at 100 µM / protection against the UV-DL-induced depletion of GSH: HaCaT
Procedure: The study consisted in evaluating at the cellular level the protective effect of the reference molecule, lipoic acid, and also of lipoic acid derivatives according to the invention, with respect to the UV-DL-induced depletion of intracellular GSH.
To do this, HaCaT cells were exposed to UV daylight (UV-DL). The level of intracellular GSH was then measured, thus allowing evaluation of the possible protection afforded by the addition to the culture medium of the lipoic acid derivatives according to the invention.
UV daylight corresponds to the radiation of non-zenithal sunlight and to an average spectral illumination: it […] the radiation received by the skin of an individual in the course of a day and not solely to that corresponding to exposure to zenithal sunlight. Devices for reproducing this radiation are described in FR 2,863,356. The evaluation technique uses a fluorescent probe, monochlorobimane (MCB). […] The specificity of MCB towards GSH in our keratinocyte model (HaCaT line) was confirmed previously. Pretreatment of cells with the reference molecule, lipoic acid, for 24 hours at 1 mM affords approximately 100% protection against the UV-DL-induced depletion of GSH (see FIG. 1 showing the evaluation of the protective effect of lipoic acid at 1 mM in the MCB test on HaCaT: the measurement of the level of intracellular GSH is performed on keratinocytes that are or are not pretreated with lipoic acid at 1 mM and exposed to UV-DL at t=0, t=6 hours and t=24 hours after the exposure to UV-DL); this protection is about 83% at 500 μM and about 10% at 100 μM.
Evaluation of the protective effect of compound 1 at 100 μM and at 30 μM of compounds 9, 10, 2, 13, 14, 12, 24, 26 and 27 is performed in the MCB test on HaCaT: evaluation of the protective effect of the silyl dithiolane compounds of WO 2008/058 999 at 100 μM is also performed in the MCB test on HaCaT: the compound 5-(1,2-dithiolan-3-yl)-N-[3-(trimethylsilyl)propyl]pentanamide and the compound (trimethylsilyl)methyl 5-(1,2-dithiolan-3-yl)pentanoate. Measurement of the intracellular level of GSH is performed on keratinocytes that have or have not been pretreated with the active agents and exposed to UV-DL, t=6 hours after the exposure to UV-DL). The results are given in the graphs in FIGS. 2 and 3.

[2] = system: normal human fibroblasts (NHF); assay: Comet test: UV-A-induced DNA damage in normal human fibroblasts; assay type: cell-based; details: 24 hours contact, UV-A = 30 min
Text: Solar UV is capable of giving rise to extensive oxidative damage in skin cells, and especially in DNA. The nucleic acids absorb the UV-B photons, thus inducing DNA damage directly. Although UV-A is not directly absorbed by DNA, it has a genotoxic action mediated by reactive oxygen species. The comet test makes it possible to quantify the UV-induced DNA damage (in this case UV-A): the breaking of strands and oxidative DNA lesions (alkali-labile sites cleaved under alkaline conditions) are detected. The principle of this test is based on the capacity of denatured and cleaved DNA fragments to migrate outside the cell nuclei, under the influence of an electric field, whereas undamaged DNA remains confined in the nucleus. The damaged DNA fragments form a trail behind the cell nucleus. The cells then take the appearance of “comets”. The “tail” of each comet is proportionately larger and stronger the greater the DNA damage incurred. (Alapetite C. et al., 1996, Int. J. Rad. Bio.; Klaude M, et al., 1996, Mut. Res.; Lehmann J. et al., 1998, Mut. Res.; Singh N P. et al., 1988, Exp. Cell Res.).
The study consisted in evaluating the photoprotective effect of two molecules with respect to UV-A-induced DNA damage. To do this, normal human fibroblasts (NHF) were placed in contact with the active agents for 24 hours. The cells were then detached, included in an agarose gel and then deposited on a microscope slide. Following the UV-A exposure (for 30 minutes), the cells were subjected to cell lysis (so as to keep intact only the genetic material), to a DNA-denaturing step and then to electrophoresis to make the damaged DNA migrate. The level of damaged DNA was measured using a fluorescence microscope combined with specialized image analysis software.

Structure (SMILES)	activity at 30 µM [1] [%]	inhibition at 30 µM [1] [%]	activity at 100 µM [1] [%]	inhibition at 100 µM [1] [%]	also measured
CC1(C(N)=O)CSS(=O)(=O)C1 (stereo not shown) [Compound 27, 4-methyl-1,2-dithiolane-4-carboxamide 1,1-dioxide]	100	101			
COC(=O)C(CCSC)NC(=O)C1(C)CSSC1 (stereo not shown) [Compound 12, methyl 2-{[(4-methyl-1,2-dithiolan-4-yl)carbonyl]amino}-4-(methylsulfanyl)butanoate]	78	61			
CC1(C(=O)O)CSS(=O)(=O)C1 (stereo not shown) [Compound 24, 4-methyl-1,2-dithiolane-4-carboxylic acid 1,1-dioxide]	91	63			
CC(=O)NCCSC(=O)C1(C)CSSC1 [Compound 13, S-[2-(acetylamino)ethyl]4-methyl-1,2-dithiolane-4-carbothioate]	71	50			
CCCCCCCNC(=O)C1(C)CSSC1 [Compound 10, N-heptyl-4-methyl-1,2-dithiolane-4-carboxamide]	99	98			
CC1(C(=O)O)CSSC1 [Compound 1, 4-methyl-1,2-dithiolane-4-carboxylic acid]			88	74	% of DNA damage ([2]; 1 μM): 80.7%; % protection ([2]; 1 μM): 19.3%; Mean TM (DNA damage) ([2]; 1 μM): 9.38; % protection ([2]; 1 μM, listed as compound 1): 20%; % of DNA damage ([2]; 10 μM): 69.4%; % protection ([2]; 10 μM): 30.6%; Mean TM (DNA damage) ([2]; 10 μM): 8.06; % protection ([2]; 10 μM, listed as compound 1): 30%
O=C(O)CCCCC1CCSS1 (stereo not shown) [lipoic acid, 1,2-dithiacyclopentane-3-valeric acid, reference compound]			63	13	protection against the UV-DL-induced depletion of GSH ([1]; pretreatment at 100 μM): about 10%; protection against the UV-DL-induced depletion of GSH ([1]; pretreatment at 500 μM): about 83%; protection against the UV-DL-induced depletion of GSH ([1]; pretreatment for 24 hours at 1 mM): approximately 100%
C[Si](C)(C)CCCNC(=O)CCCCC1CCSS1 (stereo not shown) [5-(1,2-dithiolan-3-yl)-N-[3-(trimethylsilyl)propyl]pentanamide, reference compound]			75	41	
CCCCCCCCOC(=O)C1(C)CSSC1 [Compound 9, octyl 4-methyl-1,2-dithiolane-4-carboxylate]	80	66			
CC1(C(=O)NCCO)CSSC1 [Compound 14, N-(2-hydroxyethyl)-4-methyl-1,2-dithiolane-4-carboxamide]	78	61			
C[Si](C)(C)COC(=O)CCCCC1CCSS1 (stereo not shown) [(trimethylsilyl)methyl 5-(1,2-dithiolan-3-yl)pentanoate, reference compound]			76	42	
CC1(C(N)=O)CSSC1 [Compound 2, 4-methyl-1,2-dithiolane-4-carboxamide]	92	86			% of DNA damage ([2]; 10 μM): 37.1%; % protection ([2]; 10 μM): 63% and 62.9%; Mean TM (DNA damage) ([2]; 10 μM): 2.73
CC1(C(N)=O)CS[S+]([O-])C1 (stereo not shown) [Compound 26, 4-methyl-1,2-dithiolane-4-carboxamide 1-oxide]	117	169			
